Measurements taken from ChEMBL document CHEMBL4765227, “Hit to lead optimization of a series of N-[4-(1,3-benzothiazol-2-yl)phenyl]acetamides as monoacylglycerol lipase inhibitors with potential anticancer activity” (Eur J Med Chem, 2016).

Experiments:
RPMI-8226 [1] = assay: Growth inhibition of human RPMI-8226 cells at 10 uM incubated for 48 hrs by sulforhodamine B assay relative to control; format: functional; conditions: read-out: GI
EKVX = assay: Growth inhibition of human EKVX cells at 10 uM incubated for 48 hrs by sulforhodamine B assay relative to control; format: functional; conditions: read-out: GI
HOP-92 = assay: Growth inhibition of human HOP-92 cells at 10 uM incubated for 48 hrs by sulforhodamine B assay relative to control; format: functional; conditions: read-out: GI
HCC 2998 = assay: Growth inhibition of human HCC 2998 cells at 10 uM incubated for 48 hrs by sulforhodamine B assay relative to control; format: functional; conditions: read-out: GI
HCT-15 [2] = assay: Growth inhibition of human HCT-15 cells at 10 uM incubated for 48 hrs by sulforhodamine B assay relative to control; format: functional; conditions: read-out: GI
SW-620 [3] = assay: Growth inhibition of human SW-620 cells at 10 uM incubated for 48 hrs by sulforhodamine B assay relative to control; format: functional; conditions: read-out: GI
SF-268 = assay: Growth inhibition of human SF-268 cells at 10 uM incubated for 48 hrs by sulforhodamine B assay relative to control; format: functional; conditions: read-out: GI
SNB-19 = assay: Growth inhibition of human SNB-19 cells at 10 uM incubated for 48 hrs by sulforhodamine B assay relative to control; format: functional; conditions: read-out: GI
SNB-75 [4] = assay: Growth inhibition of human SNB-75 cells at 10 uM incubated for 48 hrs by sulforhodamine B assay relative to control; format: functional; conditions: read-out: GI
Malme-3M = assay: Growth inhibition of human Malme-3M cells at 10 uM incubated for 48 hrs by sulforhodamine B assay relative to control; format: functional; conditions: read-out: GI
SK-MEL-2 [5] = assay: Growth inhibition of human SK-MEL-2 cells at 10 uM incubated for 48 hrs by sulforhodamine B assay relative to control; format: functional; conditions: read-out: GI
SK-MEL-28 = assay: Growth inhibition of human SK-MEL-28 cells at 10 uM incubated for 48 hrs by sulforhodamine B assay relative to control; format: functional; conditions: read-out: GI
UACC-257 = assay: Growth inhibition of human UACC-257 cells at 10 uM incubated for 48 hrs by sulforhodamine B assay relative to control; format: functional; conditions: read-out: GI
OVCAR-5 = assay: Growth inhibition of human OVCAR-5 cells at 10 uM incubated for 48 hrs by sulforhodamine B assay relative to control; format: functional; conditions: read-out: GI
A498 [6] = assay: Growth inhibition of human A498 cells at 10 uM incubated for 48 hrs by sulforhodamine B assay relative to control; format: functional; conditions: read-out: GI
T47D [7] = assay: Growth inhibition of human T47D cells at 10 uM incubated for 48 hrs by sulforhodamine B assay relative to control; format: functional; conditions: read-out: GI
Monoglyceride lipase = molecular target: T1, Monoglyceride lipase (Homo sapiens, UniProt Q99685); assay: Inhibition of human MAGL using 4-Nitrophenylacetate as substrate
T1 sequence (Q99685 whole entry): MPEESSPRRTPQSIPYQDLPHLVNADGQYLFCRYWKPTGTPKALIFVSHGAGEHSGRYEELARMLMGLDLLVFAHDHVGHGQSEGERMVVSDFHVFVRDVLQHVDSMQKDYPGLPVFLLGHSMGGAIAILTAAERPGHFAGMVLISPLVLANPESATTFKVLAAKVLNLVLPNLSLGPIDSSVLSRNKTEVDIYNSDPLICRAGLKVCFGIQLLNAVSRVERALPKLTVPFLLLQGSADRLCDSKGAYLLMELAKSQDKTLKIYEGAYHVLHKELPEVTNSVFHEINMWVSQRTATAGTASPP

HL-60(TB) = assay: Growth inhibition of human HL-60(TB) cells incubated for 48 hrs by sulforhodamine B assay; format: functional
RPMI-8226 [8] = assay: Growth inhibition of human RPMI-8226 cells incubated for 48 hrs by sulforhodamine B assay; format: functional
A549 = assay: Growth inhibition of human A549/ATCC cells incubated for 48 hrs by sulforhodamine B assay; format: functional
NCI-H322M = assay: Growth inhibition of human NCI-H322M cells incubated for 48 hrs by sulforhodamine B assay; format: functional
NCI-H522 = assay: Growth inhibition of human NCI-H522 cells incubated for 48 hrs by sulforhodamine B assay; format: functional
HCT-15 [9] = assay: Growth inhibition of human HCT-15 cells incubated for 48 hrs by sulforhodamine B assay; format: functional
SW-620 [10] = assay: Growth inhibition of human SW-620 cells incubated for 48 hrs by sulforhodamine B assay; format: functional
SF-295 = assay: Growth inhibition of human SF-295 cells incubated for 48 hrs by sulforhodamine B assay; format: functional
SNB-75 [11] = assay: Growth inhibition of human SNB-75 cells incubated for 48 hrs by sulforhodamine B assay; format: functional
U-251 = assay: Growth inhibition of human U-251 cells incubated for 48 hrs by sulforhodamine B assay; format: functional
M14 = assay: Growth inhibition of human M14 cells incubated for 48 hrs by sulforhodamine B assay; format: functional
MDA-MB-435 = assay: Growth inhibition of human MDA-MB-435 cells incubated for 48 hrs by sulforhodamine B assay; format: functional
SK-MEL-2 [12] = assay: Growth inhibition of human SK-MEL-2 cells incubated for 48 hrs by sulforhodamine B assay; format: functional
OVCAR-4 = assay: Growth inhibition of human OVCAR-4 cells incubated for 48 hrs by sulforhodamine B assay; format: functional
A498 [13] = assay: Growth inhibition of human A498 cells incubated for 48 hrs by sulforhodamine B assay; format: functional
CAKI-1 = assay: Growth inhibition of human CAKI-1 cells incubated for 48 hrs by sulforhodamine B assay; format: functional
SN12C = assay: Growth inhibition of human SN12C cells incubated for 48 hrs by sulforhodamine B assay; format: functional
BT-549 = assay: Growth inhibition of human BT-549 cells incubated for 48 hrs by sulforhodamine B assay; format: functional
T47D [14] = assay: Growth inhibition of human T47D cells incubated for 48 hrs by sulforhodamine B assay; format: functional
[15] = read-out: LC50 (the source's name)

In the case of `O=C(Cn1nnc2ccccc21)Nc1ccc(-c2nc3ccccc3s2)cc1`, the inhibition of growth at 10 µM (RPMI-8226 [1]) is reported as 14.7%, the inhibition of growth at 10 µM (EKVX) is reported as 21.8% and the inhibition of growth at 10 µM (HOP-92) is reported as 26.9%. For the same molecule, the inhibition of growth at 10 µM (HCC 2998) was 6.26%, the inhibition of growth at 10 µM (HCT-15 [2]) was 8.49% and the inhibition of growth at 10 µM (SW-620 [3]) was 5.47%. The inhibition of growth at 10 µM (SF-268) was 7.63%, the inhibition of growth at 10 µM (SNB-19) was -2.9% and the inhibition of growth at 10 µM (SNB-75 [4]) was -6.26%. For the same molecule, the inhibition of growth at 10 µM (Malme-3M) was 3.07%, the inhibition of growth at 10 µM (SK-MEL-2 [5]) was -0.54% and the inhibition of growth at 10 µM (SK-MEL-28) was -1.87%. The inhibition of growth at 10 µM (UACC-257) was 5.5%, the inhibition of growth at 10 µM (OVCAR-5) was -4.45% and the inhibition of growth at 10 µM (A498 [6]) was 14.9%. It also gave an inhibition of growth at 10 µM (T47D [7]) of 33.1%.

`O=C(Cn1c2ccccc2c2ccccc21)Nc1ccc(-c2nc3ccccc3s2)cc1` was tested, and the IC50 (Monoglyceride lipase) was over 100 µM, the inhibition of growth at 10 µM (RPMI-8226 [1]) was -18% and the inhibition of growth at 10 µM (EKVX) was -3.36%. For the same molecule, the inhibition of growth at 10 µM (HOP-92) was -7.01%, the inhibition of growth at 10 µM (HCC 2998) was 0.28% and the inhibition of growth at 10 µM (HCT-15 [2]) was -0.3%. It also gave an inhibition of growth at 10 µM (SW-620 [3]) of -2.44%, an inhibition of growth at 10 µM (SF-268) of 6.55% and an inhibition of growth at 10 µM (SNB-19) of -4.51%. For the same molecule, the inhibition of growth at 10 µM (SNB-75 [4]) was 3.22%, the inhibition of growth at 10 µM (Malme-3M) was 6.83% and the inhibition of growth at 10 µM (SK-MEL-2 [5]) was -0.88%. The inhibition of growth at 10 µM (SK-MEL-28) was -7.99%, the inhibition of growth at 10 µM (UACC-257) was -1.24% and the inhibition of growth at 10 µM (OVCAR-5) was 0.62%. For the same molecule, the inhibition of growth at 10 µM (A498 [6]) was 9.51% and the inhibition of growth at 10 µM (T47D [7]) was 15.5%.

With `O=C(CNc1c(Cl)cccc1Cl)Nc1ccc(-c2nc3ccccc3s2)cc1` the inhibition of growth at 10 µM (RPMI-8226 [1]) was 40.2%, the inhibition of growth at 10 µM (HOP-92) was 5.78% and the inhibition of growth at 10 µM (HCC 2998) was 64.4%. For the same molecule, the inhibition of growth at 10 µM (HCT-15 [2]) was 97.6%, the inhibition of growth at 10 µM (SW-620 [3]) was 64.7% and the inhibition of growth at 10 µM (SF-268) was 53.8%. For the same molecule, the inhibition of growth at 10 µM (SNB-19) was 26.1%, the inhibition of growth at 10 µM (SNB-75 [4]) was 40.8% and the inhibition of growth at 10 µM (Malme-3M) was 150%. It also gave an inhibition of growth at 10 µM (SK-MEL-2 [5]) of 15.2%, an inhibition of growth at 10 µM (SK-MEL-28) of -3.93% and an inhibition of growth at 10 µM (UACC-257) of 3.54%. It also gave an inhibition of growth at 10 µM (OVCAR-5) of -10.4%, an inhibition of growth at 10 µM (T47D [7]) of 119% and a GI50 (HL-60(TB)) of 2.43 µM. The TGI (HL-60(TB)) was 8.38 µM, the CC50 (HL-60(TB); [15]) was over 100 µM and the GI50 (RPMI-8226 [8]) was 2.07 µM. For the same molecule, the LC50 (RPMI-8226 [8]) was over 100 µM, the TGI (RPMI-8226 [8]) was 5.21 µM and the GI50 (A549) was 3.65 µM. It also gave a TGI (A549) of 16.9 µM, a CC50 (A549; [15]) of over 100 µM and a GI50 (NCI-H322M) of 1.8 µM. For the same molecule, the LC50 (concentration killing 50% of cells) (NCI-H322M) was 7.07 µM, the TGI (NCI-H322M) was 3.57 µM and the GI50 (NCI-H522) was 1.29 µM. For the same molecule, the LC50 (50% lethal concentration) (NCI-H522) was 7.58 µM, the TGI (NCI-H522) was 3.13 µM and the GI50 (HCT-15 [9]) was 1.58 µM. For the same molecule, the TGI (HCT-15 [9]) was 4.5 µM, the CC50 (HCT-15 [9]; [15]) was 53.7 µM and the GI50 (SW-620 [10]) was 2.01 µM. It also gave an LC50 (concentration killing 50% of cells) (SW-620 [10]) of 9.85 µM, a TGI (SW-620 [10]) of 4.45 µM and a GI50 (SF-295) of 15.3 µM. For the same molecule, the LC50 (concentration causing 50% net cell kill) (SF-295) was 60.5 µM, the TGI (SF-295) was 30.4 µM and the GI50 (SNB-75 [11]) was 2.97 µM. For the same molecule, the LC50 (concentration killing 50% of cells) (SNB-75 [11]) was 39.2 µM, the TGI (SNB-75 [11]) was 15.4 µM and the GI50 (U-251) was 2.02 µM. For the same molecule, the LC50 (lethal concentration 50) (U-251) was 9.45 µM, the TGI (U-251) was 4.37 µM and the GI50 (M14) was 2.2 µM. The TGI (M14) was 6.55 µM, the CC50 (M14; [15]) was 60.1 µM and the GI50 (MDA-MB-435) was 2.6 µM. The LC50 (MDA-MB-435) was 99.6 µM, the TGI (MDA-MB-435) was 11.3 µM and the GI50 (SK-MEL-2 [12]) was 4.14 µM. The LC50 (lethal concentration, 50% cell kill) (SK-MEL-2 [12]) was over 100 µM, the TGI (SK-MEL-2 [12]) was 18.8 µM and the GI50 (OVCAR-4) was 1.68 µM. It also gave an LC50 (OVCAR-4) of 9.74 µM, a TGI (OVCAR-4) of 4.05 µM and a GI50 (A498 [13]) of 13.8 µM. For the same molecule, the TGI (A498 [13]) was 26.9 µM, the CC50 (A498 [13]; [15]) was 52.4 µM and the GI50 (CAKI-1) was 2.3 µM. It also gave an LC50 (concentration killing 50% of cells) (CAKI-1) of 27.4 µM, a TGI (CAKI-1) of 6.71 µM and a GI50 (SN12C) of 2.49 µM. It also gave an LC50 (SN12C) of 86.1 µM, a TGI (SN12C) of 8.08 µM and a GI50 (BT-549) of 1.7 µM. The LC50 (concentration killing 50% of cells) (BT-549) was 44.4 µM, the TGI (BT-549) was 5.39 µM and the GI50 (T47D [14]) was 1.86 µM. It also gave an LC50 (concentration killing 50% of cells) (T47D [14]) of over 100 µM and a TGI (T47D [14]) of 5.44 µM.
